Laboratory results as given in patent US11116747B2, “Compositions comprising proanthocyanidins and oenothein B” (Nugerontix Limited, priority 2014, dated 2021).

Experiments:
endothelin-1 (ET-1) mRNA = assay: Endothelin-1 mRNA levels in endothelial cells by qRT-PCR; type: cell-based, bovine; settings: 24 h; OTb 1 μg/ml, Ap-OPC 1 μg/ml; normalised to RNA polymerase 2; FIG. 4(C)
Experimental: (§1) The effects on endothelin-1 synthesis of purified procyanidins and ellagitannins, either alone or in combination, are tested on human, bovine or porcine aortic endothelial cells cultured in multi-well plates. Cells are grown in a CO2 incubator with specific growth media until becoming confluent. Purified extracts, chromatography fractions, or isolated procyanidins and ellagitannins are evaluated after dilution in cell culture media and then incubated for up to 24 h with the cultured cells. At the end of the incubation period cell culture media samples are collected, and endothelin-1 synthesis is determined by immunoassay of the media samples. ET-1 release for each treated well is expressed as a percentage of basal release from control wells containing cells incubated with cell culture medium alone. Data are compared and analysed for statistically significant differences using life sciences software such as Graphpad Prism (available from www.graphpad.com). At the end of the incubation period cells are lysed to obtain mRNA to measure changes in gene expression that indicate improved endothelial function. Analyses of relative levels of mRNA transcripts are undertaken by quantitative reverse transcription polymerase chain reaction (qRT-PCR) (Journal of Agricultural and Food Chemistry, 2010, 58: 4008-13). […]

endothelin-1 synthesis = assay: Inhibition of endothelin-1 synthesis by endothelial cells (immunoassay of conditioned media); type: cell-based, bovine; settings: for endothelin-1 synthesis, percentage of basal values: Rb-ET 2 μg/ml, GS-OPC 1 μg/ml, alone or in combination
Experimental: The effects on endothelin-1 synthesis of purified procyanidins and ellagitannins, either alone or in combination, are tested on human, bovine or porcine aortic endothelial cells cultured in multi-well plates. Cells are grown in a CO2 incubator with specific growth media until becoming confluent. Purified extracts, chromatography fractions, or isolated procyanidins and ellagitannins are evaluated after dilution in cell culture media and then incubated for up to 24 h with the cultured cells. At the end of the incubation period cell culture media samples are collected, and endothelin-1 synthesis is determined by immunoassay of the media samples. ET-1 release for each treated well is expressed as a percentage of basal release from control wells containing cells incubated with cell culture medium alone. Data are compared and analysed for statistically significant differences using life sciences software such as Graphpad Prism (available from www.graphpad.com). At the end of the incubation period cells are lysed to obtain mRNA to measure changes in gene expression that indicate improved endothelial function. Analyses of relative levels of mRNA transcripts are undertaken by quantitative reverse transcription polymerase chain reaction (qRT-PCR) (Journal of Agricultural and Food Chemistry, 2010, 58: 4008-13).
Oenothein B (>95% purity) was purified from pomegranate juice by Sephadex LH20 chromatography and reverse-phase HPLC (step 1—Apex Prepsil 8 μm C-18 10×250 mm HPLC column—Jones Chromatography; step 2 Luna 5 μm PFP(2) 4.6×250 mm HPLC column—Phenomenex). Ability to modify endothelial function was assessed by incubating oenothein B with bovine aortic endothelial cells and measuring endothelin-1 synthesis following previously described methods (Journal of Agricultural and Food Chemistry, 2010, 58: 4008-13).
Biologically active biotin-labelled apple oligomeric procyanidins were prepared as follows: apple polyphenol extract was fractionated on Sephadex LH20 to obtain a fraction enriched in apple oligomeric procyanidins (OPC) tetramers to hexamers. The fraction was dried, re-dissolved in dimethyl formamide and reacted with the tetrafluorophenyl ester of triethyleneglycol-biotin (Thermo Scientific EZ-Link™ TFP-PEG3-Biotin). […]
Ellagitannins: oenothein B (OTb, 1 μg/ml), raspberry seed extract (Rb-ET 2 μg/ml); oligomeric procyanidins (OPC): grape seed extract (GS-OPC, 1 μg/ml) and apple extract (Ap-OPC, 1 μg/ml) purified as above, were incubated either alone, or in combination, with bovine aortic endothelial cells for 6 h and 24 h (FIGS. 2(A) and 2(B)). […] Statistical differences were determined by ANOVA (**=P<0.01; ***=P<0.001 indicates significant difference compared to basal values; ^+++=P<0.001 compared to the individual components of the combinations alone). […]

[1] = tested on: endothelial nitric oxide synthase (eNOS) mRNA; assay: eNOS mRNA levels in endothelial cells by qRT-PCR; type: cell-based, bovine; settings: 24 h; OTb 1 μg/ml, Ap-OPC 1 μg/ml; normalised to RNA polymerase 2; FIG. 4(B)
Experimental: as §1

[2] = tested on: Kruppel-like factor 2 (KLF2) mRNA; assay: KLF2 mRNA levels in endothelial cells by qRT-PCR; type: cell-based, bovine; settings: 24 h; OTb 1 μg/ml, Ap-OPC 1 μg/ml; normalised to RNA polymerase 2; FIG. 4(A)
Experimental: as §1

[3] = tested on: bovine aortic endothelial cells; assay: Binding of biotinylated-OPC to endothelial cells (neutravidin-horseradish peroxidase/TMB detection); type: cell-based; settings: oenothein B 30 min preincubation, then biotinylated-OPC 1 μg/ml with oenothein B 30 min, FIG. 1(C)
Experimental: Bovine aortic endothelial cells were incubated with oenothein B (μg/ml) from pomegranate juice for 30 min before addition of biotinylated-OPC (1 μg/ml) alone or with oenothein B (μg/ml) for 30 min. After removal of the incubation mixture, bound biotinylated-OPC was detected by incubation with neutravidin-horseradish peroxidase for 1 h; followed by addition of TMB substrate for 30 min after cells had been rinsed twice to remove excess neutravidin-horseradish peroxidase. Binding is indicated relative to biotinylated-OPC alone after subtraction of background signal. (All data are shown as mean±SD; *=P<0.05; **=P<0.01; ***=P<0.001 indicates significant differences from basal or control values). […] From this it can be concluded that oenothein B increases the affinity of endothelial cells for procyanidins, and enhances the effectiveness of procyanidins for reversing endothelial dysfunction.

Structure (SMILES): O=C(O[C@@H]1[C@H]2OC(=O)c3cc(O)c(O)c(O)c3Oc3cc4c(c(O)c3O)-c3c(cc(O)c(O)c3O)C(=O)OC[C@H]3O[C@@H](O)[C@H](OC(=O)c5cc(O)c(O)c(O)c5Oc5cc6c(c(O)c5O)-c5c(cc(O)c(O)c5O)C(=O)O[C@@H]1[C@@H](COC6=O)O[C@H]2O)[C@@H](OC(=O)c1cc(O)c(O)c(O)c1)[C@@H]3OC4=O)c1cc(O)c(O)c(O)c1 [oenothein B]
- endothelin-1 (ET-1) mRNA levels, ratio to control (endothelin-1 (ET-1) mRNA): largely unaffected
- endothelin-1 synthesis, percentage of basal values (endothelin-1 synthesis; 6 h incubation, OTb 1 μg/ml, Ap-OPC 1 μg/ml, FIG. 2(A)): inhibited endothelin-1 synthesis
- endothelin-1 total synthesis (endothelin-1 synthesis; 24 h, OTb 1 μg/ml, Ap-OPC 1 μg/ml, Example 19, FIG. 4(D)): largely unaffected
- endothelin-1 synthesis, percentage of basal values (endothelin-1 synthesis; 24 h incubation, OTb 1 μg/ml, Ap-OPC 1 μg/ml, FIG. 2(B)): much reduced
- inhibition of endothelin-1 synthesis (endothelin-1 synthesis; bovine aortic endothelial cells, FIG. 1(A), 1(B)): concentration dependent
- eNOS mRNA levels, ratio to control [1]: little effect
- KLF2 mRNA levels, ratio to control [2]: relatively insignificant
- binding of biotinylated-OPC relative to biotinylated-OPC alone [3]: binding of procyanidins increases as oenothein B concentration increases
